The supplement of paper PMC8882468

System: HCI-001 (organoid from a triple-negative breast cancer xenograft)
Assay: CTG-3D luminescence at 96 h relative to day-0 seeding control (ratio to day 0); higher = more growth / less cytotoxicity; PDxO 3D drug screen, 96 h, CTG-3D normalised to day-0 seeding control.
Conditions: 0.00025 µM; days in culture: 260

Row | Structure (SMILES) | CTG-3D luminescence at 96 h
1 | COc1cccc2c1C(=O)c1c(O)c3c(c(O)c1C2=O)C[C@@](O)(C(=O)CO)C[C@@H]3O[C@H]1C[C@H](N)[C@H](O)[C@H](C)O1 [doxorubicin] | 0.99
2 | O=C(O)C1(C(=O)O)CCC1.[NH2-].[NH2-].[Pt+2] [carboplatin] | 0.978
3 | NC(=O)Nc1cc(-c2cccc(F)c2)sc1C(=O)N[C@H]1CCCNC1 [AZD7762] | 1.02
4 | Nc1ccn([C@@H]2O[C@H](CO)[C@@H](O)C2(F)F)c(=O)n1 [gemcitabine] | 0.95
5 | CC1(C)CCC(c2ccc(Cl)cc2)=C(CN2CCN(c3ccc(C(=O)NS(=O)(=O)c4ccc(N[C@H](CCN5CCOCC5)CSc5ccccc5)c(S(=O)(=O)C(F)(F)F)c4)cc3)CC2)C1 [navitoclax] | 1.09
6 | CN(Cc1cnc2nc(N)nc(N)c2n1)c1ccc(C(=O)N[C@@H](CCC(=O)O)C(=O)O)cc1 [methotrexate] | 0.984
7 | C=CCn1c(=O)c2cnc(Nc3ccc(N4CCN(C)CC4)cc3)nc2n1-c1cccc(C(C)(C)O)n1 [adavosertib] | 1.31
8 | CC(C)(C(=O)NCC(F)(F)C(F)(F)F)C(=O)N[C@@H]1C(=O)Nc2ccccc2-c2ccccc21 | 1.03
9 | C[C@@H]1COCCN1c1cc(C2([S@](C)(=N)=O)CC2)nc(-c2cc[nH]c3nccc2-3)n1 [ceralasertib] | 0.899
10 | CCN1CCN(Cc2ccc(Nc3ncc(F)c(-c4cc(F)c5nc(C)n(C(C)C)c5c4)n3)nc2)CC1 [abemaciclib] | 1.22

Same assay, conditions: 0.00025 µM; days in culture: 269

Row | Structure (SMILES) | CTG-3D luminescence at 96 h
11 | COc1cccc2c1C(=O)c1c(O)c3c(c(O)c1C2=O)C[C@@](O)(C(=O)CO)C[C@@H]3O[C@H]1C[C@H](N)[C@H](O)[C@H](C)O1 [doxorubicin] | 1.69
12 | O=C(O)C1(C(=O)O)CCC1.[NH2-].[NH2-].[Pt+2] [carboplatin] | 1.61
13 | NC(=O)Nc1cc(-c2cccc(F)c2)sc1C(=O)N[C@H]1CCCNC1 [AZD7762] | 1.84
14 | Nc1ccn([C@@H]2O[C@H](CO)[C@@H](O)C2(F)F)c(=O)n1 [gemcitabine] | 1.62
15 | CC1(C)CCC(c2ccc(Cl)cc2)=C(CN2CCN(c3ccc(C(=O)NS(=O)(=O)c4ccc(N[C@H](CCN5CCOCC5)CSc5ccccc5)c(S(=O)(=O)C(F)(F)F)c4)cc3)CC2)C1 [navitoclax] | 1.73
16 | CN(Cc1cnc2nc(N)nc(N)c2n1)c1ccc(C(=O)N[C@@H](CCC(=O)O)C(=O)O)cc1 [methotrexate] | 1.46
17 | C=CCn1c(=O)c2cnc(Nc3ccc(N4CCN(C)CC4)cc3)nc2n1-c1cccc(C(C)(C)O)n1 [adavosertib] | 1.7
18 | CC(C)(C(=O)NCC(F)(F)C(F)(F)F)C(=O)N[C@@H]1C(=O)Nc2ccccc2-c2ccccc21 | 1.61
19 | C[C@@H]1COCCN1c1cc(C2([S@](C)(=N)=O)CC2)nc(-c2cc[nH]c3nccc2-3)n1 [ceralasertib] | 1.65
20 | CCN1CCN(Cc2ccc(Nc3ncc(F)c(-c4cc(F)c5nc(C)n(C(C)C)c5c4)n3)nc2)CC1 [abemaciclib] | 1.73

Same assay, conditions: 0.00025 µM; days in culture: 327

Row | Structure (SMILES) | CTG-3D luminescence at 96 h
21 | COc1cccc2c1C(=O)c1c(O)c3c(c(O)c1C2=O)C[C@@](O)(C(=O)CO)C[C@@H]3O[C@H]1C[C@H](N)[C@H](O)[C@H](C)O1 [doxorubicin] | 1.49
22 | O=C(O)C1(C(=O)O)CCC1.[NH2-].[NH2-].[Pt+2] [carboplatin] | 1.43
23 | NC(=O)Nc1cc(-c2cccc(F)c2)sc1C(=O)N[C@H]1CCCNC1 [AZD7762] | 1.77
24 | Nc1ccn([C@@H]2O[C@H](CO)[C@@H](O)C2(F)F)c(=O)n1 [gemcitabine] | 0.959
25 | CC1(C)CCC(c2ccc(Cl)cc2)=C(CN2CCN(c3ccc(C(=O)NS(=O)(=O)c4ccc(N[C@H](CCN5CCOCC5)CSc5ccccc5)c(S(=O)(=O)C(F)(F)F)c4)cc3)CC2)C1 [navitoclax] | 1.59
26 | CN(Cc1cnc2nc(N)nc(N)c2n1)c1ccc(C(=O)N[C@@H](CCC(=O)O)C(=O)O)cc1 [methotrexate] | 1.62
27 | C=CCn1c(=O)c2cnc(Nc3ccc(N4CCN(C)CC4)cc3)nc2n1-c1cccc(C(C)(C)O)n1 [adavosertib] | 1.49
28 | CC(C)(C(=O)NCC(F)(F)C(F)(F)F)C(=O)N[C@@H]1C(=O)Nc2ccccc2-c2ccccc21 | 1.27
29 | C[C@@H]1COCCN1c1cc(C2([S@](C)(=N)=O)CC2)nc(-c2cc[nH]c3nccc2-3)n1 [ceralasertib] | 1.4
30 | CCN1CCN(Cc2ccc(Nc3ncc(F)c(-c4cc(F)c5nc(C)n(C(C)C)c5c4)n3)nc2)CC1 [abemaciclib] | 1.41

Same assay, conditions: 0.00025 µM; days in culture: 346

Row | Structure (SMILES) | CTG-3D luminescence at 96 h
31 | COc1cccc2c1C(=O)c1c(O)c3c(c(O)c1C2=O)C[C@@](O)(C(=O)CO)C[C@@H]3O[C@H]1C[C@H](N)[C@H](O)[C@H](C)O1 [doxorubicin] | 1.22
32 | O=C(O)C1(C(=O)O)CCC1.[NH2-].[NH2-].[Pt+2] [carboplatin] | 1.53
33 | NC(=O)Nc1cc(-c2cccc(F)c2)sc1C(=O)N[C@H]1CCCNC1 [AZD7762] | 1.49
34 | Nc1ccn([C@@H]2O[C@H](CO)[C@@H](O)C2(F)F)c(=O)n1 [gemcitabine] | 1.2
35 | CC1(C)CCC(c2ccc(Cl)cc2)=C(CN2CCN(c3ccc(C(=O)NS(=O)(=O)c4ccc(N[C@H](CCN5CCOCC5)CSc5ccccc5)c(S(=O)(=O)C(F)(F)F)c4)cc3)CC2)C1 [navitoclax] | 1.22
36 | CN(Cc1cnc2nc(N)nc(N)c2n1)c1ccc(C(=O)N[C@@H](CCC(=O)O)C(=O)O)cc1 [methotrexate] | 1.34
37 | C=CCn1c(=O)c2cnc(Nc3ccc(N4CCN(C)CC4)cc3)nc2n1-c1cccc(C(C)(C)O)n1 [adavosertib] | 1.34
38 | CC(C)(C(=O)NCC(F)(F)C(F)(F)F)C(=O)N[C@@H]1C(=O)Nc2ccccc2-c2ccccc21 | 1.31
39 | C[C@@H]1COCCN1c1cc(C2([S@](C)(=N)=O)CC2)nc(-c2cc[nH]c3nccc2-3)n1 [ceralasertib] | 1.49
40 | CCN1CCN(Cc2ccc(Nc3ncc(F)c(-c4cc(F)c5nc(C)n(C(C)C)c5c4)n3)nc2)CC1 [abemaciclib] | 1.37

Same assay, conditions: 0.00025 µM; days in culture: 364

Row | Structure (SMILES) | CTG-3D luminescence at 96 h
41 | COc1cccc2c1C(=O)c1c(O)c3c(c(O)c1C2=O)C[C@@](O)(C(=O)CO)C[C@@H]3O[C@H]1C[C@H](N)[C@H](O)[C@H](C)O1 [doxorubicin] | 1.06
42 | O=C(O)C1(C(=O)O)CCC1.[NH2-].[NH2-].[Pt+2] [carboplatin] | 1.09
43 | NC(=O)Nc1cc(-c2cccc(F)c2)sc1C(=O)N[C@H]1CCCNC1 [AZD7762] | 1.16
44 | Nc1ccn([C@@H]2O[C@H](CO)[C@@H](O)C2(F)F)c(=O)n1 [gemcitabine] | 1.23
45 | CC1(C)CCC(c2ccc(Cl)cc2)=C(CN2CCN(c3ccc(C(=O)NS(=O)(=O)c4ccc(N[C@H](CCN5CCOCC5)CSc5ccccc5)c(S(=O)(=O)C(F)(F)F)c4)cc3)CC2)C1 [navitoclax] | 1.16
46 | CN(Cc1cnc2nc(N)nc(N)c2n1)c1ccc(C(=O)N[C@@H](CCC(=O)O)C(=O)O)cc1 [methotrexate] | 1.17
47 | C=CCn1c(=O)c2cnc(Nc3ccc(N4CCN(C)CC4)cc3)nc2n1-c1cccc(C(C)(C)O)n1 [adavosertib] | 1.15
48 | CC(C)(C(=O)NCC(F)(F)C(F)(F)F)C(=O)N[C@@H]1C(=O)Nc2ccccc2-c2ccccc21 | 1.25
49 | C[C@@H]1COCCN1c1cc(C2([S@](C)(=N)=O)CC2)nc(-c2cc[nH]c3nccc2-3)n1 [ceralasertib] | 1.19
50 | CCN1CCN(Cc2ccc(Nc3ncc(F)c(-c4cc(F)c5nc(C)n(C(C)C)c5c4)n3)nc2)CC1 [abemaciclib] | 1.1

Same assay, conditions: 0.005 µM; days in culture: 240

Row | Structure (SMILES) | CTG-3D luminescence at 96 h
51 | COc1cccc2c1C(=O)c1c(O)c3c(c(O)c1C2=O)C[C@@](O)(C(=O)CO)C[C@@H]3O[C@H]1C[C@H](N)[C@H](O)[C@H](C)O1 [doxorubicin] | 0.995
52 | O=C(O)C1(C(=O)O)CCC1.[NH2-].[NH2-].[Pt+2] [carboplatin] | 0.945
53 | NC(=O)Nc1cc(-c2cccc(F)c2)sc1C(=O)N[C@H]1CCCNC1 [AZD7762] | 1.07
54 | Nc1ccn([C@@H]2O[C@H](CO)[C@@H](O)C2(F)F)c(=O)n1 [gemcitabine] | 1.1
55 | CC1(C)CCC(c2ccc(Cl)cc2)=C(CN2CCN(c3ccc(C(=O)NS(=O)(=O)c4ccc(N[C@H](CCN5CCOCC5)CSc5ccccc5)c(S(=O)(=O)C(F)(F)F)c4)cc3)CC2)C1 [navitoclax] | 0.955
56 | CN(Cc1cnc2nc(N)nc(N)c2n1)c1ccc(C(=O)N[C@@H](CCC(=O)O)C(=O)O)cc1 [methotrexate] | 1.13
57 | C=CCn1c(=O)c2cnc(Nc3ccc(N4CCN(C)CC4)cc3)nc2n1-c1cccc(C(C)(C)O)n1 [adavosertib] | 1.22
58 | CC(C)(C(=O)NCC(F)(F)C(F)(F)F)C(=O)N[C@@H]1C(=O)Nc2ccccc2-c2ccccc21 | 0.87
59 | C[C@@H]1COCCN1c1cc(C2([S@](C)(=N)=O)CC2)nc(-c2cc[nH]c3nccc2-3)n1 [ceralasertib] | 0.905
60 | CCN1CCN(Cc2ccc(Nc3ncc(F)c(-c4cc(F)c5nc(C)n(C(C)C)c5c4)n3)nc2)CC1 [abemaciclib] | 0.704

Same assay, conditions: 0.005 µM; days in culture: 260

Row | Structure (SMILES) | CTG-3D luminescence at 96 h
61 | COc1cccc2c1C(=O)c1c(O)c3c(c(O)c1C2=O)C[C@@](O)(C(=O)CO)C[C@@H]3O[C@H]1C[C@H](N)[C@H](O)[C@H](C)O1 [doxorubicin] | 2.06
62 | O=C(O)C1(C(=O)O)CCC1.[NH2-].[NH2-].[Pt+2] [carboplatin] | 2.01
63 | NC(=O)Nc1cc(-c2cccc(F)c2)sc1C(=O)N[C@H]1CCCNC1 [AZD7762] | 1.44
64 | Nc1ccn([C@@H]2O[C@H](CO)[C@@H](O)C2(F)F)c(=O)n1 [gemcitabine] | 1.44
65 | CC1(C)CCC(c2ccc(Cl)cc2)=C(CN2CCN(c3ccc(C(=O)NS(=O)(=O)c4ccc(N[C@H](CCN5CCOCC5)CSc5ccccc5)c(S(=O)(=O)C(F)(F)F)c4)cc3)CC2)C1 [navitoclax] | 1.83
66 | CN(Cc1cnc2nc(N)nc(N)c2n1)c1ccc(C(=O)N[C@@H](CCC(=O)O)C(=O)O)cc1 [methotrexate] | 2.27
67 | C=CCn1c(=O)c2cnc(Nc3ccc(N4CCN(C)CC4)cc3)nc2n1-c1cccc(C(C)(C)O)n1 [adavosertib] | 2.32
68 | CC(C)(C(=O)NCC(F)(F)C(F)(F)F)C(=O)N[C@@H]1C(=O)Nc2ccccc2-c2ccccc21 | 1.58
69 | C[C@@H]1COCCN1c1cc(C2([S@](C)(=N)=O)CC2)nc(-c2cc[nH]c3nccc2-3)n1 [ceralasertib] | 1.81
70 | CCN1CCN(Cc2ccc(Nc3ncc(F)c(-c4cc(F)c5nc(C)n(C(C)C)c5c4)n3)nc2)CC1 [abemaciclib] | 1.6

Same assay, conditions: 0.005 µM; days in culture: 269

Row | Structure (SMILES) | CTG-3D luminescence at 96 h
71 | COc1cccc2c1C(=O)c1c(O)c3c(c(O)c1C2=O)C[C@@](O)(C(=O)CO)C[C@@H]3O[C@H]1C[C@H](N)[C@H](O)[C@H](C)O1 [doxorubicin] | 1.45
72 | O=C(O)C1(C(=O)O)CCC1.[NH2-].[NH2-].[Pt+2] [carboplatin] | 1.58
73 | NC(=O)Nc1cc(-c2cccc(F)c2)sc1C(=O)N[C@H]1CCCNC1 [AZD7762] | 1.41
74 | Nc1ccn([C@@H]2O[C@H](CO)[C@@H](O)C2(F)F)c(=O)n1 [gemcitabine] | 1.4
75 | CC1(C)CCC(c2ccc(Cl)cc2)=C(CN2CCN(c3ccc(C(=O)NS(=O)(=O)c4ccc(N[C@H](CCN5CCOCC5)CSc5ccccc5)c(S(=O)(=O)C(F)(F)F)c4)cc3)CC2)C1 [navitoclax] | 1.37
